Source: US12129234B1, “Crystalline salts of N-ethyl-(5-fluoro-1H-indol-3-yl)-N-methylethan-1-amine” (Gilgamesh Pharmaceuticals, Inc., priority 2023, dated 2024)

Key:
[1] = Stability of the solid upon drying under vacuum; type: physicochemical; details: solids collected by filtration and dried under vacuum
Procedure: (§1) Alternatively, after the oil is formed from the evaporation of the ethanol, acetone is added to the oil at a temperature effective to solubilize the oil, ranging from about 30° C. to about 60° C., such as 45° C., and then the resulting mixture is cooled to room temperature. A non-polar antisolvent, such as n-heptane is added to the solution with stirring to form a slurry comprising N-ethyl-2-(5-fluoro-1H-indol-3-yl)-N-methylethan-1-amine monosuccinate, from which a crystalline solid comprising N-ethyl-2-(5-fluoro-1H-indol-3-yl)-N-methylethan-1-amine monosuccinate is crystallized, for example, by seeding, scratching, or aging. The solids are collected by filtration and dried under vacuum.

[2] = Overnight humidity exposure at 30° C./90% relative humidity; type: physicochemical; details: 30° C./90% relative humidity (RH)
Procedure: as §1

CCN(C)CCc1c[nH]c2ccc(F)cc12.O=C(O)CCC(=O)O [N-ethyl-2-(5-fluoro-1H-indol-3-yl)-N-methylethan-1-amine monosuccinate]
stability upon drying [1]: stable upon drying
behaviour after humidity exposure (deliquescence) [2]: deliquesces
